The source made the active and inactive calls.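 The calls were made as follows: active = in confirmatory dose-response testing, peak deubiquitinase inhibition of 30% or more; inactive = the rest.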 Positions of bridges follow the written chain, without caps; N, C: chain ends. Residues, ends and D or L forms follow the SMILES beside them. ξ: configuration not given here. *: point of attachment. Pentadecanoyl(3ξ-OH,15-Gua) = N=C(N)NCCCCCCCCCCCCC(O)CC(=O)*
Biological target: Ubiquitin carboxyl-terminal hydrolase 28 (Homo sapiens) (UniProt Q96RU2)
Sequence (Q96RU2 whole entry, looked up): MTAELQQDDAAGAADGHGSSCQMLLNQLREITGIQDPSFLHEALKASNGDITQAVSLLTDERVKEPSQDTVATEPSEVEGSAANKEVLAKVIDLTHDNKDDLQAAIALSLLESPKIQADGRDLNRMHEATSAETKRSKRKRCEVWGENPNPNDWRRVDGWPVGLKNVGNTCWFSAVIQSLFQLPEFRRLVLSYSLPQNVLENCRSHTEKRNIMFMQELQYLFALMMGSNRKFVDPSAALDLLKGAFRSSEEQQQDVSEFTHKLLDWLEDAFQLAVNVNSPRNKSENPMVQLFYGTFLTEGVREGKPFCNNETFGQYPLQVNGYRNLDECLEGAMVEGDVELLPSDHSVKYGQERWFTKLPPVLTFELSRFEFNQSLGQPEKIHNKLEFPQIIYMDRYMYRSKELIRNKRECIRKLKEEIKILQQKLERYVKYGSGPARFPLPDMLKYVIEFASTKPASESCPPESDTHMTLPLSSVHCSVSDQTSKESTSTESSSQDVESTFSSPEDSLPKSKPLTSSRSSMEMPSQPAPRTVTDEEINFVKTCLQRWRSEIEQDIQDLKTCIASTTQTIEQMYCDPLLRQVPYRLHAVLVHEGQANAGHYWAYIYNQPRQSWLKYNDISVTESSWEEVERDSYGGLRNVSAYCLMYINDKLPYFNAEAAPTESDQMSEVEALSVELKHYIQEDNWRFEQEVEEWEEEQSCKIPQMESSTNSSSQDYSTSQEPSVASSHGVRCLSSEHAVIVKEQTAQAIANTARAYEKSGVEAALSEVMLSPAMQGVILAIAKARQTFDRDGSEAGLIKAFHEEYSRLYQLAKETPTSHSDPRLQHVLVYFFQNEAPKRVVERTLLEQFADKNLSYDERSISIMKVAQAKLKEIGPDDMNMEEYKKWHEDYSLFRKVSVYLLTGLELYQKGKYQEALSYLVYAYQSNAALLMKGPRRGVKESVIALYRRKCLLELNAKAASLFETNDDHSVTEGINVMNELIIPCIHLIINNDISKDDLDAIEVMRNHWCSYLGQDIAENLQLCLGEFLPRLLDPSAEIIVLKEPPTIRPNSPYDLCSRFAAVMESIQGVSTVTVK
Test: Ubiquitin-specific peptidase 28 DUB inhibitors, biochemical concentration-dependence assay, validation of primary screening hits (AID 1645866)
Conditions: purified USP28, ubiquitin-rhodamine fluorescence, 30 min

Row | IC50 | Structure (SMILES)
1 | 7.24 µM | CCOc1cc(N2CCOCC2)c(OCC)cc1NC(=O)c1cc(-c2ccncc2)nc2ccccc12
2 | 17 µM | CCOCCCn1c(SCC(=O)Nc2ccccc2C(F)(F)F)nc2ccccc2c1=O
3 | 37.5 µM | O=C(CSc1nncc2ccccc12)Nc1ccc2c(c1)OCO2
4 | 4.78 µM | CC(C)(C)C(=O)Nc1ccc(C(=O)Nc2cccc(-c3nnc(-c4ccccc4)o3)c2)cc1
5 | 3.63 µM | CC1NC(=O)C(CC(N)=O)NC(=O)C(C(C)O)NC(=O)C(Cc2ccc(O)cc2)NC(=O)C(C(C)C)NC(=O)C(NC(=O)CC(O)CCCCCCCCCCCCN=C(N)N)C(C)OC1=O (centres undefined) ({Pentadecanoyl(3ξ-OH,15-Gua)}-TVYTNA; ester 1-C; configuration not given here)
6 | 18.2 µM | O=C1N(Cc2cccc(Cl)c2)CCN1c1ccc2c(c1)CCC2
7 | 5.1 µM | CC(OC(=O)c1c2c(nc3ccccc13)CCCCC2)C(=O)Nc1ccc2ccccc2c1 (centres undefined)
8 | 25.8 µM | CCCC(=O)Nc1nc2ccc(CCC(=O)NCc3ccc(F)cc3)cc2s1
9 | 15.7 µM | COc1ccc(C(=O)NCCc2nnc3ccc(SCC(=O)NCc4ccc(F)cc4)nn23)cc1
10 | 1.82 µM | O=c1c(-c2nc(C3CC3)no2)cccn1Cc1c(F)cccc1Cl
11 | > 50 µM (inactive) | O=C(CN1CCCc2ccccc21)Nc1ccc(N2CCOCC2)cc1
12 | 21.1 µM | COc1ccc(CCNC(=O)CCCCn2c(=O)c3ccccc3n(Cc3cccc(Cl)c3)c2=O)cc1OC
13 | > 50 µM (inactive) | CC(=O)c1cccc(NC(=O)c2ccc3[nH]c4c(c3c2)CC(C)CC4)c1 (centres undefined)
14 | 3.08 µM | O=C1CC(c2ccco2)Cc2[nH]c(=O)c(C(=O)Nc3ccc(Cl)cc3)cc21 (centres undefined)
15 | > 50 µM (inactive) | CCc1c(Cl)c(O)c(Cl)c(O)c1C(=O)O[C@H]1C(C)O[C@@H](OC/C2=C\C=C\CC(O)/C(C)=C/C(CC)C(O[C@@H]3OC(C)(C)[C@H](O)C(OC(=O)C(C)C)[C@@H]3O)/C(C)=C/C(C)=C/CC(C(C)O)OC2=O)[C@@H](OC)C1O (some centres undefined)
16 | 14.2 µM | Cc1cc(C(=O)Nc2ccc3nc(N4CCN(c5ncccn5)CC4)cc(C)c3c2)ccc1[N+](=O)[O-]
17 | 23.4 µM | O=C(CCc1nnc2n(Cc3ccccc3Cl)c(=O)c3ccccc3n12)NCc1ccccn1
18 | 1.85 µM | CC(c1ccccc1)n1c(-c2ccc(F)cc2)nc2c(c(=O)c3ccccc3n2C)c1=O (centres undefined)
19 | 2.32 µM | COc1cccc(/C=C/C(=O)Nc2ccc(N3CCOCC3)cc2)c1OC
20 | 42.9 µM | COc1ccccc1C(=O)N1CCC(S(=O)(=O)c2ccc(-c3ccco3)cc2)CC1
21 | 36.7 µM | Cc1nc(-c2ccc(C(=O)NCc3ccc(F)cc3)cc2)cs1
22 | > 50 µM (inactive) | COc1ccc(-c2cnnn2-c2ccc(NC(=O)c3c(F)cccc3F)cc2)cc1OC
23 | 20.8 µM | Cc1nn(Cc2ccccc2)c2sc(C(=O)Nc3nc4ccccc4[nH]3)cc12

Row | Structure (SMILES) | IC50
24 | O=C1c2c(O)c(Cl)cc3c2[C@@]2(Oc4cc(Cl)c(O)c5c4[C@]3(O2)[C@@H]2O[C@@H]2C5=O)[C@@H]2O[C@H]12 | 0.495 µM
